From ChEMBL document CHEMBL1201862, “PubChem BioAssay data set” (2004)
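Exposure lasted 48 hours, with cells grown in 96-well plates and compounds tested at five concentrations. GI50: concentration for 50% inhibition of growth.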 The source made the active and inactive calls. Rule as the data show it: active = GI50 up to about 1.1 µM and inactive = higher.

Legend:
Experiment in all cases: DTP human tumour cell line panel, 48 h
UACC-62 = tested on: UACC-62
MDA-MB-231 = tested on: MDA-MB-231
NCI/ADR-RES = tested on: NCI/ADR-RES
SR = tested on: SR
DU-145 = tested on: DU-145
T47D = tested on: T47D
SNB-75 = tested on: SNB-75
IGROV-1 = tested on: IGROV-1
CCRF-CEM = tested on: CCRF-CEM
SK-MEL-5 = tested on: SK-MEL-5
NCI-H460 = tested on: NCI-H460
SNB-19 = tested on: SNB-19
MOLT-4 = tested on: MOLT-4
CAKI-1 = tested on: CAKI-1
SK-MEL-28 = tested on: SK-MEL-28
A549 = tested on: A549
OVCAR-4 = tested on: OVCAR-4
SF-268 = tested on: SF-268
PC-3 = tested on: PC-3
SW-620 = tested on: SW-620

| SMILES | GI50 (UACC-62) | GI50 (MDA-MB-231) | GI50 (NCI/ADR-RES) | GI50 (SR) | GI50 (DU-145) | GI50 (T47D) | GI50 (SNB-75) | GI50 (IGROV-1) | GI50 (CCRF-CEM) | GI50 (SK-MEL-5) | GI50 (NCI-H460) | GI50 (SNB-19) | GI50 (MOLT-4) | GI50 (CAKI-1) | GI50 (SK-MEL-28) | GI50 (A549) | GI50 (OVCAR-4) | GI50 (SF-268) | GI50 (PC-3) | GI50 (SW-620) |
| --- | --- | --- | --- | --- | --- | --- | --- | --- | --- | --- | --- | --- | --- | --- | --- | --- | --- | --- | --- | --- |
| N=C(N)NS(=O)(=O)c1ccc(N/N=C2/CCOC2=O)cc1 | > 100 µM (inactive) | > 100 µM (inactive) | > 100 µM (inactive) | 70.6 µM (inactive) | > 100 µM (inactive) | 49.1 µM (inactive) | 21.7 µM (inactive) | > 100 µM (inactive) | > 100 µM (inactive) | > 100 µM (inactive) | > 100 µM (inactive) | > 100 µM (inactive) | 2.95 µM (inactive) | > 100 µM (inactive) | > 100 µM (inactive) | > 100 µM (inactive) | > 100 µM (inactive) | 45.1 µM (inactive) | 80.4 µM (inactive) | > 100 µM (inactive) |
| c1cc(C2=NCCO2)c2ccsc2c1 | > 100 µM (inactive) | > 100 µM (inactive) | > 100 µM (inactive) | > 100 µM (inactive) | > 100 µM (inactive) | > 100 µM (inactive) | 0.0573 µM (active) | > 100 µM (inactive) | > 100 µM (inactive) | > 100 µM (inactive) | > 100 µM (inactive) | > 100 µM (inactive) | > 100 µM (inactive) | > 100 µM (inactive) | > 100 µM (inactive) | > 100 µM (inactive) | > 100 µM (inactive) | > 100 µM (inactive) | > 100 µM (inactive) | > 100 µM (inactive) |
| COc1ccc(/C=C/c2nsc(/C=C/c3ccc(OC)cc3)n2)cc1 |  | > 100 µM (inactive) | > 100 µM (inactive) | 27.3 µM (inactive) | > 100 µM (inactive) | 38 µM (inactive) | > 100 µM (inactive) | > 100 µM (inactive) | 19.3 µM (inactive) | > 100 µM (inactive) | 24.9 µM (inactive) | > 100 µM (inactive) | 33 µM (inactive) | > 100 µM (inactive) | > 100 µM (inactive) | > 100 µM (inactive) | > 100 µM (inactive) | > 100 µM (inactive) | 48.5 µM (inactive) |  |
| COc1ccc(-c2nnc(CCCCCCCCc3nnc(-c4ccc(OC)cc4)n3N)n2N)cc1 | > 92 µM (inactive) | > 57.8 µM (inactive) | > 31.6 µM (inactive) | > 100 µM (inactive) | > 100 µM (inactive) | > 100 µM (inactive) | 37.9 µM (inactive) | > 96.6 µM (inactive) | > 100 µM (inactive) | > 100 µM (inactive) | > 100 µM (inactive) | > 60.3 µM (inactive) | > 100 µM (inactive) | > 100 µM (inactive) | > 100 µM (inactive) | > 100 µM (inactive) | > 100 µM (inactive) | > 58.2 µM (inactive) | > 100 µM (inactive) | > 100 µM (inactive) |
| COC(=N)C1(C#N)NC(c2ccsc2)C(C#N)(C#N)NC1c1ccsc1 (stereo unspecified) | > 100 µM (inactive) | 76.7 µM (inactive) | > 100 µM (inactive) | > 100 µM (inactive) | > 100 µM (inactive) | 80.2 µM (inactive) | 88.5 µM (inactive) | > 100 µM (inactive) | > 100 µM (inactive) | > 100 µM (inactive) | > 100 µM (inactive) | > 100 µM (inactive) | > 100 µM (inactive) | > 100 µM (inactive) | > 100 µM (inactive) | > 100 µM (inactive) | > 100 µM (inactive) | > 100 µM (inactive) | 81.1 µM (inactive) | > 100 µM (inactive) |
| CN(C)CCNC(=O)c1cccc2ccc(-c3ccc(O)cc3)nc12 | 1.39 µM (inactive) | 0.959 µM (active) | 5.11 µM (inactive) | 2.47 µM (inactive) | 2.33 µM (inactive) | 3.09 µM (inactive) | 2.74 µM (inactive) | 2.47 µM (inactive) | 1.35 µM (inactive) | 1.25 µM (inactive) | 0.548 µM (active) | 1.31 µM (inactive) | 0.238 µM (active) | 1.19 µM (inactive) | 3.15 µM (inactive) | 0.92 µM (active) | 2.43 µM (inactive) | 3.92 µM (inactive) | 2.37 µM (inactive) | 1.02 µM (active) |
| COc1ccc(N2C(=O)[C@H]3[C@H]4CC(C(C)(C)C)CC[C@H]4c4c(n(C)c5ccccc45)[C@H]3C2=O)cc1 (stereo partly specified) | 53.5 µM (inactive) | > 100 µM (inactive) | > 100 µM (inactive) | > 100 µM (inactive) | > 100 µM (inactive) | > 100 µM (inactive) | > 87.7 µM (inactive) | > 100 µM (inactive) | > 100 µM (inactive) | 4.65 µM (inactive) | > 10 µM (inactive) | > 100 µM (inactive) | > 100 µM (inactive) | > 100 µM (inactive) | > 100 µM (inactive) | > 100 µM (inactive) | > 79.6 µM (inactive) | > 100 µM (inactive) | > 100 µM (inactive) | > 100 µM (inactive) |
| Cc1cc2c(cc1Cl)SC(NNCCO)=NS2(=O)=O | 97.7 µM (inactive) | > 100 µM (inactive) | > 100 µM (inactive) | > 100 µM (inactive) | > 100 µM (inactive) | > 100 µM (inactive) | > 100 µM (inactive) | > 100 µM (inactive) | > 100 µM (inactive) | 73.1 µM (inactive) | > 100 µM (inactive) | > 100 µM (inactive) | > 100 µM (inactive) | > 100 µM (inactive) | > 100 µM (inactive) |  | > 100 µM (inactive) | > 100 µM (inactive) | 86.3 µM (inactive) | > 100 µM (inactive) |
| CCOC(=O)[C@@H]1CCN2CN(c3ccc(OC)cc3)N=C(c3ccccc3)[C@@]12c1ccccc1 | 15.5 µM (inactive) | 31.6 µM (inactive) | 28.3 µM (inactive) | 23.7 µM (inactive) | 22.6 µM (inactive) | 19.1 µM (inactive) | 11.5 µM (inactive) | 21.3 µM (inactive) | 23.7 µM (inactive) | 13.2 µM (inactive) | 27.8 µM (inactive) | 37 µM (inactive) | 26.1 µM (inactive) | 29.6 µM (inactive) | 21.5 µM (inactive) | 29.9 µM (inactive) | 44 µM (inactive) | 28.9 µM (inactive) | 25.5 µM (inactive) | 32.1 µM (inactive) |
| Cc1cc2c3ccccc3n(C)c2c2c1C(=O)C=CC2=O | 16.3 µM (inactive) | 15.3 µM (inactive) | 33.9 µM (inactive) | 4.68 µM (inactive) | 21.7 µM (inactive) | 3.39 µM (inactive) | 27 µM (inactive) | 16.8 µM (inactive) | 2.42 µM (inactive) | 27.4 µM (inactive) | 17.1 µM (inactive) | 28.5 µM (inactive) | 6.76 µM (inactive) | 14.3 µM (inactive) | 21.5 µM (inactive) | 40.4 µM (inactive) | 7.29 µM (inactive) | 17.2 µM (inactive) | 9.91 µM (inactive) | 10.7 µM (inactive) |
| COc1cc(-c2nc3ccccn3c2/N=C/c2cc(Br)cc(Br)c2O)ccc1O | 27 µM (inactive) | 15.6 µM (inactive) | 22 µM (inactive) | 25.9 µM (inactive) | 27.6 µM (inactive) | 23.3 µM (inactive) | 24 µM (inactive) | 22.9 µM (inactive) | 17.7 µM (inactive) | 25.5 µM (inactive) | 35.1 µM (inactive) | 26.1 µM (inactive) | 22.9 µM (inactive) | 29.2 µM (inactive) | 16.6 µM (inactive) | > 100 µM (inactive) | 19.4 µM (inactive) | 14.3 µM (inactive) | 22.6 µM (inactive) | 26.4 µM (inactive) |
| O=C1c2ccccc2CC12Cc1ccc3c(c1C2)CCC3 (stereo unspecified) | 20.3 µM (inactive) | 12 µM (inactive) | 4.24 µM (inactive) | 14 µM (inactive) | 34.6 µM (inactive) | 19.1 µM (inactive) | 20.3 µM (inactive) | 25.5 µM (inactive) | 16.8 µM (inactive) | 15.5 µM (inactive) | 23.7 µM (inactive) | 48.1 µM (inactive) | 23.8 µM (inactive) | 26.8 µM (inactive) | 31 µM (inactive) | 17.5 µM (inactive) | 22.2 µM (inactive) | 30 µM (inactive) | 26 µM (inactive) | 30.5 µM (inactive) |
| COc1cc2c(cc1OC)[C@H]1C(=O)c3cc4c(cc3[C@H]1N(C)C2=O)OCO4 | 0.879 µM (active) | 28 µM (inactive) | 4.81 µM (inactive) | 0.557 µM (active) | 8.43 µM (inactive) | > 28.2 µM (inactive) | 8.77 µM (inactive) | 11.2 µM (inactive) | 0.366 µM (active) | 1.96 µM (inactive) | 0.955 µM (active) | 6.35 µM (inactive) | 0.3 µM (active) | 3.13 µM (inactive) | > 100 µM (inactive) | 21.8 µM (inactive) | > 100 µM (inactive) | 4.17 µM (inactive) | 9.04 µM (inactive) | 2.44 µM (inactive) |
| CO[C@H]1C[C@@H]2CC[C@@H](C)[C@@](O)(O2)C(=O)C(=O)N2CCCC[C@H]2C(=O)O[C@H]([C@H](C)C[C@@H]2CC[C@@H](OC(=O)C(C)(CO)CO)[C@H](OC)C2)CC(=O)[C@H](C)/C=C(\C)[C@@H](O)[C@@H](OC)C(=O)[C@H](C)C[C@H](C)/C=C/C=C/C=C/1C [TEMSIROLIMUS] | 0.0141 µM (active) | 0.0217 µM (active) | 0.0881 µM (active) | 0.000361 µM (active) | 0.0975 µM (active) | 0.000995 µM (active) | 0.0104 µM (active) |  | 0.00177 µM (active) | 0.0792 µM (active) | 0.0678 µM (active) | 0.0258 µM (active) | 0.00176 µM (active) | 0.0142 µM (active) | 0.0298 µM (active) | 0.0301 µM (active) | 0.0247 µM (active) | 0.00873 µM (active) | 0.00123 µM (active) | 4.23 µM (inactive) |
